In patent publication US7687083B2, “Pharmaceutical compositions comprising old man's beard (Usnea barbata) and St. John's wort (Hypericum perforatum) and their use” (Universitatsklinikum Freiburg, priority 2004, dated 2010):
Values after ≈ are worked out from the molar mass of the structure shown.

Columns and labels:
[1] = tested on: Propionibacterium acnes; assay: agar dilution test (MIC/MBC); assay type: cell-based; settings: Cutibacterium acnes
Experimental: The old man's beard CO2 extract (Usnea barbata L.) was tested in the concentrations 1:10, 1:50, 1:100, 1:500 and 1:1000 in the agar dilution test for a number of aerobic and anaerobic bacteria. The pure substance usnic acid was tested in concentrations of 128/64/32/16/8/4/2/1/0.5/0.25 and 0.125 μg/ml. The MIC (minimum inhibitory concentration) is defined as >90% inhibition of bacterial growth after 24 h. The MBC (minimum bactericidal concentration) is defined as >90% inhibition of the growth at 48 h.

[2] = tested on: Pityrosporon ovale; assay: oil submersion test on Sabouraud agar with scales of patients with seborrhoeal eczema; assay type: cell-based; settings: 1% in olive oil; incubation for 4 days
Experimental: In addition, the efficacy against pityrosporon of 1% Usnea extract in olive oil in comparison with 1% amphotericin was investigated. For this purpose, scales of patients with seborrhoeal eczema were applied to Sabouraud agar and covered with a layer of the oil. After incubation for 4 days in an incubator, the number of colony-forming units was counted.

[3] = UV erythema test; assay type: in vivo, healthy test persons; settings: 1.5 times MED UVB, applied in Finn chambers for 24 hours; FIG. 5
Experimental: The minimal erythema dose for UVB was determined in the case of seven healthy test persons. Thereafter, test fields on the back were exposed to 1.5 times the minimal erythema dose (MED). The test substances were applied in Finn chambers for 24 hours. The UV-induced erythema was determined photometrically before exposure and after action of the substances.

In the case of CC(=O)c1c(O)c(C)c(O)c2c1OC1=CC(=O)C(C(C)=O)C(=O)C12C (centres unmarked) [Usnic acid, usnic acid], the MIC ([1]; >90% inhibition of bacterial growth after 24 h) is reported as 1 µg/mL (≈ 2.9 µM) and the MBC ([1]; >90% inhibition of the growth at 48 h) is reported as 4 µg/mL (≈ 11.6 µM).
In the case of C[C@@H]1[C@H](O)[C@@H](C)/C=C/C=C/C=C/C=C/C=C/C=C/C=C/[C@H](O[C@@H]2O[C@H](C)[C@@H](O)[C@H](N)[C@@H]2O)C[C@@H]2O[C@](O)(C[C@@H](O)C[C@@H](O)[C@H](O)CC[C@@H](O)C[C@@H](O)CC(=O)O[C@H]1C)C[C@H](O)[C@H]2C(=O)O [1% Amphotericin in olive oil, amphotericin], the “growth of the pityrosporon yeast fungi” value [2] is reported as “inhibited completely” and the “number of colony-forming units” value [2] is reported as 1 CFU.
With CCOC(=O)O[C@]1(C(=O)COC(=O)CC)CC[C@H]2[C@@H]3CCC4=CC(=O)C=C[C@]4(C)[C@H]3[C@@H](O)C[C@@]21C [Prednicarbate] the “UV-induced inflammation (erythema, photometric)” value [3] was “inhibit the UV-induced inflammation”.
